The record followed here is patent US20210002263A1, “HETEROARYLPYRIMIDINE COMPOUND AND FORMULATION FOR CONTROLLING HARMFUL ORGANISMS” (Nippon Soda Co., Ltd., priority 2018, published 2021).

Molecules are shown by their SMILES. Some results are limits rather than exact numbers.

The subject of one data set is Mythimna separata. Nature of the data set: Efficacy test against Mythimna separata (treated artificial feed). In kind it is in vivo. The settings on record: 1 μl of Emulsion (I) (5% active ingredient) in 0.8 g artificial feed; second-instar larvae; 25° C.; fifth day. As for the experimental part: (§1) 5 parts of the compound of the present invention, 93.6 parts of dimethylformamide and 1.4 parts of polyoxyethylene alkyl aryl ether were mixed and dissolved to prepare Emulsion (I) including 5% of an active ingredient.
For the control, Emulsion (II) was prepared by mixing and dissolving 93.6 parts of dimethylformamide and 1.4 parts of polyoxyethylene alkyl aryl ether.
(§2) An insect mortality rate was calculated by the numerical equation shown below.
(§3) Insect mortality rate (%)={(Number of dead insects)/(Number of sample insects)}×100
0.8 g of a commercially available artificial feed (Insecta LFS, manufactured by Nosan Corporation) and 1 μl of Emulsion (I) were mixed thoroughly. Thereby, a test feed was obtained.
The test feed was placed in an amount of 0.2 g in each of the treatment areas of a plastic test container (volume: 1.4 ml). Subsequently, two second-instar larvae of Mythimna separata were inoculated into each treatment area, and the test container was sealed with a plastic lid in order to prevent the larvae from escaping. The sealed container was placed in a thermostatic chamber at 25° C., and the insect mortality rate and the amount of feed consumed were determined on the fifth day. The test was performed twice.
As the control areas, the insect mortality rate and the amount of feed consumed were determined in the same manner as that described in Test Example 1, with the exception of replacing Emulsion (I) with Emulsion (II).

The next data set concerns Phyllotreta striolata. The experiment in a line: Efficacy test against Phyllotreta striolata (spray on bok-choi seedlings). In kind it is in vivo. Particulars: 168 h, sprayed on bok-choi seedlings, adults, 7 days after inoculation, read-out: insect mortality rate. As for the experimental part:
as §1, §2, §3
Emulsion (I) was diluted with water so that the concentration of the compound of the present invention was 125 ppm, to prepare a diluted liquid for testing. The aforementioned diluted liquid was sprayed on bok-choi seedlings (7th major leaf-development period) planted in No. 3 pots. After the bok-choi seedlings were subjected to air-drying, the seedlings were placed in plastic cups, followed by inoculating 10 adult Phyllotreta striolata. The plastic cups were stored in a thermostatic chamber at a temperature of 25° C. and humidity of 65%. Mortality was investigated 7 days after inoculation, and the insect mortality rate was calculated. The test was performed twice.

The subject of the next data set is Plutella xylostella. The experiment in a line: Efficacy test against Plutella xylostella (cabbage leaf dip). Format: in vivo. Particulars: foliar, 72 h, cabbage leaves soaked 30 seconds, second-instar larvae, 3 days after inoculation, read-out: insect mortality rate. Here is the method: as §1, §2, §3
Emulsion (I) was diluted with water so that the concentration of the compound of the present invention was 125 ppm. Cabbage leaves were soaked in the diluted liquid for 30 seconds. Subsequently, the cabbage leaves were put on Petri dishes, followed by inoculating 5 second-instar larvae of Plutella xylostella. The Petri dishes were placed in a thermostatic chamber at a temperature of 25° C. and humidity of 60%. Mortality was investigated 3 days after inoculation, and the insect mortality rate was calculated. The test was performed twice.

For another data set, the system named is Nilaparvata lugens. Nature of the data set: Efficacy test against Nilaparvata lugens (rice seedling dip). Particulars: 168 h, rice seedlings soaked 30 seconds, second-instar larvae, 7 days after inoculation, read-out: insect mortality rate. Format: in vivo. Here is the method:
as §1, §2, §3
Emulsion (I) was diluted with water so that the concentration of the compound of the present invention was 125 ppm. Rice seedlings were soaked in the diluted liquid for 30 seconds, and subjected to air-drying. Subsequently, the rice seedlings were placed in plastic cases, followed by inoculating 5 second-instar larvae of Nilaparvata lugens. The plastic cases were placed in a thermostatic chamber at a temperature of 25° C. and humidity of 65%. Mortality was investigated 7 days after inoculation, and the insect mortality rate was calculated. The test was performed twice.

Another data set concerns Aphis craccivora. Nature of the data set: Efficacy test against Aphis craccivora (spray on black-eyed pea plants). Particulars: in Vigna unguiculata, 96 h, sprayed on black-eyed pea plants, nymphs, 4 days after spraying, read-out: insect mortality rate. In kind it is in vivo. Here is the method:
as §1, §2, §3
Black-eyed pea plants were raised in No. 3 pots and the primary leaves were inoculated with nymphs of Aphis craccivora. Emulsion (I) was diluted with water so that the concentration of the compound of the present invention was 125 ppm. Subsequently, the aforementioned diluted liquid was sprayed on the black-eyed pea plants on which the nymphs of Aphis craccivora were parasitic. The aforementioned black-eyed pea plants were then placed in a thermostatic chamber with a temperature of 25° C. and humidity of 60%. Mortality was investigated 4 days after spraying was carried out, and the insect mortality rate of Aphis craccivora was calculated. The test was performed twice.

Turning to `CCS(=O)(=O)c1cnc(-c2ncn(C)n2)nc1-c1nc2cc(C(F)(F)F)cnc2n1C` [A-5], the “insect mortality rate or amount of feed consumed relative to control area” value with Mythimna separata is “mortality rate against Mythimna separata was 100%, or the amount of feed consumed was 10% or less”.

As for `CCS(=O)(=O)c1cnc(N)nc1-c1nc2cc(C(F)(F)F)cnc2n1C` [A-13], the “insect mortality rate or amount of feed consumed relative to control area” value in the data set with Mythimna separata was “mortality rate against Mythimna separata was 100%, or the amount of feed consumed was 10% or less”.

What is called mortality is the percentage killed. In the case of `CCS(=O)(=O)c1cnc(-c2ncccn2)nc1-c1nc2cc(C(F)(F)F)cnc2n1C` [A-2, 2-(5-(ethylsulfonyl)-[2,2′-bipyrimidin]-4-yl)-3-methyl-6-(trifluoromethyl)-3H-imidazo[4,5-b]pyridine], the “insect mortality rate or amount of feed consumed relative to control area” value with Mythimna separata was “mortality rate against Mythimna separata was 100%, or the amount of feed consumed was 10% or less”. Further, the mortality at 125 ppm with Phyllotreta striolata, in the data set on Plutella xylostella, in the data set on Nilaparvata lugens and in the data set on Aphis craccivora was at least 80% each time.

On to `CCS(=O)(=O)c1cnc(N(C)C)nc1-c1nc2cc(C(F)(F)F)cnc2n1C` [A-17], for which the “insect mortality rate or amount of feed consumed relative to control area” value with Mythimna separata is “mortality rate against Mythimna separata was 100%, or the amount of feed consumed was 10% or less”.

The melting point is the temperature of the solid-liquid transition. The compound `CCS(=O)(=O)c1cnc(-c2ncccn2)nc1-c1nc2cc([S+]([O-])C(F)(F)F)ccc2o1` (stereo not drawn) [A-8, 2-(5-(ethylsulfonyl)-[2,2′-bipyrimidin]-4-yl)-5-((trifluoromethyl)sulfinyl)benzo[d]oxazole] returned a melting point of 192 to 195 °C.

Compound `CCS(=O)(=O)c1cnc(-n2nccc2N)nc1-c1nc2cc(C(F)(F)F)cnc2n1C` [A-27, 1-(5-(ethylsulfonyl)-4-(3-methyl-6-(trifluoromethyl)-3H-imidazo[4,5-b]pyridin-2-yl)pyrimidin-2-yl)-1H-pyrazol-5-amine] showed a melting point of 247 to 249 °C.

In turn, `CCS(=O)(=O)c1cnc(-c2ncccn2)nc1-c1nc2cc(SC(F)(F)F)ccc2o1` [A-7, 2-(5-(ethylsulfonyl)-[2,2′-bipyrimidin]-4-yl)-5-((trifluoromethyl)thio)benzo[d]oxazole] yielded a melting point of 223 to 225 °C.

In the case of `CCS(=O)(=O)c1cnc(NC)nc1-c1nc2cc(C(F)(F)F)cnc2n1C` [A-16], the “insect mortality rate or amount of feed consumed relative to control area” value in the data set with Mythimna separata is on record as “mortality rate against Mythimna separata was 100%, or the amount of feed consumed was 10% or less”.

Compound `CCS(=O)(=O)c1cnc(NN)nc1-c1nc2cc(C(F)(F)F)cnc2n1C` [A-24, 2-(5-(ethylsulfonyl)-2-hydrazineylpyrimidin-4-yl)-3-methyl-6-(trifluoromethyl)-3H-imidazo[4,5-b]pyridine] showed a melting point of 227 to 229 °C.

Turning to `CCS(=O)(=O)c1cnc(OC)nc1-c1nc2cc(C(F)(F)F)cnc2n1C` [A-23], the “insect mortality rate or amount of feed consumed relative to control area” value in the data set with Mythimna separata is on record as “mortality rate against Mythimna separata was 100%, or the amount of feed consumed was 10% or less”.

Turning to `CCS(=O)(=O)c1cnc(N)nc1-c1nc2cc(SC(F)(F)F)ccc2o1` [A-10], the “insect mortality rate or amount of feed consumed relative to control area” value in the data set on Mythimna separata is “mortality rate against Mythimna separata was 100%, or the amount of feed consumed was 10% or less”.

Turning to `CCS(=O)(=O)c1cnc(-n2cccn2)nc1-c1nc2cc(C(F)(F)F)cnc2n1C` [A-20], in the data set on Mythimna separata, the “insect mortality rate or amount of feed consumed relative to control area” value was “mortality rate against Mythimna separata was 100%, or the amount of feed consumed was 10% or less”.

`CCS(=O)(=O)c1cnc(NCCN)nc1-c1nc2cc(C(F)(F)F)cnc2n1C` [A-28]: in the data set on Mythimna separata, the “insect mortality rate or amount of feed consumed relative to control area” value was “mortality rate against Mythimna separata was 100%, or the amount of feed consumed was 10% or less”.

In turn, `CCS(=O)(=O)c1cnc(-c2ncccn2)nc1-c1nc2cc(S(=O)(=O)C(F)(F)F)ccc2o1` [A-9, 2-(5-(ethylsulfonyl)-[2,2′-bipyrimidin]-4-yl)-5-((trifluoromethyl)sulfonyl)benzo[d]oxazole] had a melting point of 118 to 124 °C.

As for `CCS(=O)(=O)c1cnc(-n2ncnc2N)nc1-c1nc2cc(C(F)(F)F)cnc2n1C` [A-12, 1-(5-(ethylsulfonyl)-4-(3-methyl-6-(trifluoromethyl)-3H-imidazo[4,5-b]pyridin-2-yl)pyrimidin-2-yl)-1H-1,2,4-triazol-5-amine], the “insect mortality rate or amount of feed consumed relative to control area” value in the data set with Mythimna separata is “mortality rate against Mythimna separata was 100%, or the amount of feed consumed was 10% or less”. For the same compound, the mortality at 125 ppm in the data set on Phyllotreta striolata, in the data set with Plutella xylostella and in the data set on Nilaparvata lugens was at least 80% each time.

For `CCOC(=O)c1cnn(-c2ncc(S(=O)(=O)CC)c(-c3nc4cc(C(F)(F)F)cnc4n3C)n2)c1N` [A-26, ethyl 5-amino-1-(5-(ethylsulfonyl)-4-(3-methyl-6-(trifluoromethyl)-3H-imidazo[4,5-b]pyridin-2-yl)pyrimidin-2-yl)-1H-pyrazole-4-carboxylate], the “insect mortality rate or amount of feed consumed relative to control area” value with Mythimna separata is given as “mortality rate against Mythimna separata was 100%, or the amount of feed consumed was 10% or less”. Further, the mortality at 125 ppm with Phyllotreta striolata, in the data set on Plutella xylostella and in the data set with Aphis craccivora was at least 80% each time.

As to `CCS(=O)(=O)c1cnc(-n2ccc(N)n2)nc1-c1nc2cc(C(F)(F)F)cnc2n1C` [A-25], the “insect mortality rate or amount of feed consumed relative to control area” value with Mythimna separata is “mortality rate against Mythimna separata was 100%, or the amount of feed consumed was 10% or less”.
